The values that follow come from patent publication US10414769B2, “5,8-dimethyl-9-phenyl-5,8-dihydro-6H-pyrazolo[3,4-h]quinazolin-2-yl)-(1H-pyrazol-3-yl)-amines as IGF-1R/IR inhibitors” (Boehringer Ingelheim International GmbH, priority 2015, dated 2019).

A word on the inhibition: it is the share of the control response that was lost under treatment. The IC50 is the point on the concentration scale where inhibition reaches its midpoint. The low end stands for greater potency, the high end for weaker potency.

What all share (assay type): biochemical
One experiment concerns the target T1, GSK3B (GSK3 beta) (Homo sapiens, UniProt P49841).
T1 construct: purchased Life Technologies PV 3365
Description: Z'-LYTE kinase selectivity assay GSK3B. The source says:
(§1) In order to compare the kinase selectivity of compounds (I) according to the invention with known prior art compounds the commercially provided SelectScreen® Kinase Profiling Service (Z′-LYTE®) was used (Life Technologies GmbH, Darmstadt, Germany) to investigate the ability of the compounds to inhibit a number of different, representatively selected human kinases. Further details regarding this service are available on the Life Technologies website at
(§2) The Z′-LYTE® biochemical assay employs a fluorescence-based, coupled-enzyme format and is based on the differential sensitivity of phosphorylated and non-phosphorylated peptides to proteolytic cleavage. The peptide substrate is labeled with two fluorophores—one at each end—that make up a FRET pair.
(§3) In the primary reaction, the kinase transfers the gamma-phosphate of ATP to a single tyrosine, serine or threonine residue in a synthetic FRET-peptide. In the secondary reaction, a site-specific protease recognizes and cleaves non-phosphorylated FRET-peptides. Phosphorylation of FRET-peptides suppresses cleavage by the Development Reagent. Cleavage disrupts FRET between the donor (i.e., coumarin) and acceptor (i.e., fluorescein) fluorophores on the FRET-peptide, whereas uncleaved, phosphorylated FRET-peptides maintain FRET. A ratiometric method, which calculates the ratio (the Emission Ratio) of donor emission to acceptor emission after excitation of the donor fluorophore at 400 nm, is used to quantitate reaction progress, as shown in the equation below.
(§4) The Test Compounds are screened at 1 μM.
The 2×GSK3B (GSK3 beta) (# PV 3365)/Ser/Thr 09 (Z′-LYTE® Kinase Assay Kit—Ser/Thr 9 Peptide, # PV 3324) mixture is prepared in 50 mM HEPES pH 7.5, 0.01% BRIJ-35, 10 mM MgCl2, 1 mM EGTA. The final 10 μL Kinase Reaction consists of 0.17-0.88 ng GSK3B (GSK3 beta) and 2 μM Ser/Thr 09 in 50 mM HEPES pH 7.5, 0.01% BRIJ-35, 10 mM MgCl2, 1 mM EGTA. After the 1 hour Kinase Reaction incubation, 5 μL of a 1:512 dilution of Development Reagent A is added.

The next experiment has as its target T2, AMPK A1/B1/G1 (Homo sapiens, UniProt Q13131).
T2 construct: purchased Life Technologies PV 4672
Description: Z'-LYTE kinase selectivity assay AMPK A1/B1/G1. To be noted: read-out: AMPK A1B1G1 % inhibition.
Excerpt: as §1, §2, §3, §4
The 2×AMPK A1/B1/G1 (# PV 4672)/Ser/Thr 23 (Z′-LYTE® Kinase Assay Kit—Ser/Thr 23 Peptide, # PV 4644) mixture is prepared in 50 mM HEPES pH 7.5, 0.01% BRIJ-35, 10 mM MgCl2, 1 mM EGTA. The final 10 μL Kinase Reaction consists of 0.43-2.86 ng AMPK A1/B1/G1 and 2 μM Ser/Thr 23 in 50 mM HEPES pH 7.5, 0.01% BRIJ-35, 10 mM MgCl2, 1 mM EGTA. After the 1 hour Kinase Reaction incubation, 5 μL of a 1:4096 dilution of Development Reagent A is added.

The target in another experiment is T3, human IGF-1R (Homo sapiens, UniProt P08069).
T3 construct: human IGF-1R (amino acids 964-1370) is expressed as a fusion protein; made in house; host or cells: High Five insect cells (Invitrogen)
Description: Insulin-like growth factor-1 receptor (IGF-1R)-kinase assay (DELFIA). To be noted: inhibition of IGF-1R-kinase activity. As for the experimental part: Insulin-Like Growth Factor-1 Receptor (IGF-1R)-Kinase Assay
The kinase activity is measured by DELFIA® assay (dissociation-enhanced lanthanide fluorescence immunoassay, Perkin Elmer). The cytoplasmic kinase domain of human IGF-1R (amino acids 964-1370) is expressed as a fusion protein with a glutathione-S-transferase tag (IGF-1R-GST) in High Five™ Cells (Invitrogen). Enzyme activity is measured in the presence of substances and a control substance. Poly-glutamate-tyrosine peptide (pEY, Sigma Aldrich) and biotinylated pEY (bio-pEY) are used as reaction substrates.
10 μL of substance in 25% DMSO are mixed with 30 μL of IGF-1R-GST solution (67 mM HEPES pH 7.4, 15 μg/mL pEY, 1.7 μg/mL bio-pEY, 13.3 mM MgCl2, 3.3 mM dithiothreitol, 0.0033% Brij 35, 2 ng IGF-1R-GST) in 96-well plates. The reactions are started with 10 μL of a 750 μM ATP solution. After 40 min at RT the reactions are stopped with 50 μL of stop solution (250 mM EDTA, 20 mM HEPES pH 7.4). 90 μL from each reaction are transferred onto streptavidin-coated 96-well plates. After 120 min incubation at RT the plates are washed three times with 200 μL phosphate-buffered saline (PBS) per well. The plates are incubated for 60 min with 100 μL of europium-coupled antibody against phospho-tyrosine (diluted 1/2000 in Perkin Elmer DELFIA assay buffer) per well. The plates are washed three times with 200 μL per well of DELFIA washing buffer (Perkin Elmer). 100 μL DELFIA Enhancement Solution (Perkin Elmer) is added to each well, and the plates are incubated for 10 min. The fluorescence signal is measured with a Wallac Victor TRF Reader. IC50 values for the inhibition of the IGF-1R-kinase activity are calculated using the programme GraphPad (Version 3.0).

The target of another experiment is T4, ABL1 (Homo sapiens, UniProt P00519).
T4 construct: purchased Life Technologies P3049
As to the kind of experiment: Z'-LYTE kinase selectivity assay ABL1.
Excerpt: as §1, §2, §3, §4
The 2×ABL1 (# P3049)/Tyr 02 (Z′-LYTE® Kinase Assay Kit—Tyrosine 2 Peptide, # PV 3191) mixture is prepared in 50 mM HEPES pH 7.5, 0.01% BRIJ-35, 10 mM MgCl2, 1 mM EGTA. The final 10 μL Kinase Reaction consists of 0.29-2.52 ng ABL1 and 2 μM Tyr 02 in 50 mM HEPES pH 7.5, 0.01% BRIJ-35, 10 mM MgCl2, 1 mM EGTA. After the 1 hour Kinase Reaction incubation, 5 μL of a 1:128 dilution of Development Reagent A is to added.

T3 sequence (P08069 964-1367 limits assumed): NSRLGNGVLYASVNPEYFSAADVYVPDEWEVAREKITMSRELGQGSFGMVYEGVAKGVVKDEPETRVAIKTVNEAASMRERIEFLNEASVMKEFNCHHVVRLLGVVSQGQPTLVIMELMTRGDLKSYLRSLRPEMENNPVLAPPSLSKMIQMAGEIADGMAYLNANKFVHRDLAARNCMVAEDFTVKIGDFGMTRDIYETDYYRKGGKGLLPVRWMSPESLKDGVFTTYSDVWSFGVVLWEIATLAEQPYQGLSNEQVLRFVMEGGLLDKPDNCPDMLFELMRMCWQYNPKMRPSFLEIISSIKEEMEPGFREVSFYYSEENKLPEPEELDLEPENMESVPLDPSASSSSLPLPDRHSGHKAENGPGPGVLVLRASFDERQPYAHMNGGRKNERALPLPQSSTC
T2 sequence (Q13131 whole entry): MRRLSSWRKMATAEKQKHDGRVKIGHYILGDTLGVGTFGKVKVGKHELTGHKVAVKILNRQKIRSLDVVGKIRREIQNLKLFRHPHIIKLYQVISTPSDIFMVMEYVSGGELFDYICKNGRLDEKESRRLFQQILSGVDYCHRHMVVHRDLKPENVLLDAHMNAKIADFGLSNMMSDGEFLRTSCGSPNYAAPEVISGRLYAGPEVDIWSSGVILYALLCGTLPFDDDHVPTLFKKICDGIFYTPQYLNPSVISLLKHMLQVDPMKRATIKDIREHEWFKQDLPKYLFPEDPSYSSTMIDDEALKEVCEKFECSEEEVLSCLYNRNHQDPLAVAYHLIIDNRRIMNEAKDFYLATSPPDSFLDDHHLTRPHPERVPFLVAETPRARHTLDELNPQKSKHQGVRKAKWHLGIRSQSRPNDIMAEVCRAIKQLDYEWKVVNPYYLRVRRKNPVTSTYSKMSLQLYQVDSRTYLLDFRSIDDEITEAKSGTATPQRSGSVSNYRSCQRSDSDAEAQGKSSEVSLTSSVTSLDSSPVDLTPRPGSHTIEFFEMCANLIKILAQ
T2 sequence (Q9Y478 whole entry partner): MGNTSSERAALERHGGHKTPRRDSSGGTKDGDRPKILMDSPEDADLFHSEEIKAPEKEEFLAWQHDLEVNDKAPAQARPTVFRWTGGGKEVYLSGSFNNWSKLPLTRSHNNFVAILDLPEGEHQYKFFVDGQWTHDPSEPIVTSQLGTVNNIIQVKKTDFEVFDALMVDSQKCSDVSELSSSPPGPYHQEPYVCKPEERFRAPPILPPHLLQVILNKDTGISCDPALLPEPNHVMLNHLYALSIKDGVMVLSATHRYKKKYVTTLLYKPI
T2 sequence (P54619 whole entry partner): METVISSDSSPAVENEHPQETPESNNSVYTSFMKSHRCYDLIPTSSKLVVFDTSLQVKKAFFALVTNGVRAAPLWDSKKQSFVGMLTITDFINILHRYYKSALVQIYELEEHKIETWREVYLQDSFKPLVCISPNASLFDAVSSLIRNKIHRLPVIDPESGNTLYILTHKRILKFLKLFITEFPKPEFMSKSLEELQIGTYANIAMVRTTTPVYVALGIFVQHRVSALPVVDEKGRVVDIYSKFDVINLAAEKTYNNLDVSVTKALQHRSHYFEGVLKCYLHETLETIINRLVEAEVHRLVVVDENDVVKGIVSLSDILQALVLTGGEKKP
T1 sequence (P49841 whole entry): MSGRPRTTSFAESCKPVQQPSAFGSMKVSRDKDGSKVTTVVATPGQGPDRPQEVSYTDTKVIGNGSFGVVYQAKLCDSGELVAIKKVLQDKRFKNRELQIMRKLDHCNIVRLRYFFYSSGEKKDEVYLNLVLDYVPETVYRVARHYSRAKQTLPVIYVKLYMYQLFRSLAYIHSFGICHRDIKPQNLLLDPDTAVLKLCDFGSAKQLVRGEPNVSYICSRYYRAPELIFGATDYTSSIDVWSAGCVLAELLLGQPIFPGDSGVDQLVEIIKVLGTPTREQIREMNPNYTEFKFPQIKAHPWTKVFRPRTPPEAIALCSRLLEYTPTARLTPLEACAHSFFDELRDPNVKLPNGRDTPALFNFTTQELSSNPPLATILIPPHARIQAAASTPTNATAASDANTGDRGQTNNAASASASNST
T4 sequence (P00519 whole entry): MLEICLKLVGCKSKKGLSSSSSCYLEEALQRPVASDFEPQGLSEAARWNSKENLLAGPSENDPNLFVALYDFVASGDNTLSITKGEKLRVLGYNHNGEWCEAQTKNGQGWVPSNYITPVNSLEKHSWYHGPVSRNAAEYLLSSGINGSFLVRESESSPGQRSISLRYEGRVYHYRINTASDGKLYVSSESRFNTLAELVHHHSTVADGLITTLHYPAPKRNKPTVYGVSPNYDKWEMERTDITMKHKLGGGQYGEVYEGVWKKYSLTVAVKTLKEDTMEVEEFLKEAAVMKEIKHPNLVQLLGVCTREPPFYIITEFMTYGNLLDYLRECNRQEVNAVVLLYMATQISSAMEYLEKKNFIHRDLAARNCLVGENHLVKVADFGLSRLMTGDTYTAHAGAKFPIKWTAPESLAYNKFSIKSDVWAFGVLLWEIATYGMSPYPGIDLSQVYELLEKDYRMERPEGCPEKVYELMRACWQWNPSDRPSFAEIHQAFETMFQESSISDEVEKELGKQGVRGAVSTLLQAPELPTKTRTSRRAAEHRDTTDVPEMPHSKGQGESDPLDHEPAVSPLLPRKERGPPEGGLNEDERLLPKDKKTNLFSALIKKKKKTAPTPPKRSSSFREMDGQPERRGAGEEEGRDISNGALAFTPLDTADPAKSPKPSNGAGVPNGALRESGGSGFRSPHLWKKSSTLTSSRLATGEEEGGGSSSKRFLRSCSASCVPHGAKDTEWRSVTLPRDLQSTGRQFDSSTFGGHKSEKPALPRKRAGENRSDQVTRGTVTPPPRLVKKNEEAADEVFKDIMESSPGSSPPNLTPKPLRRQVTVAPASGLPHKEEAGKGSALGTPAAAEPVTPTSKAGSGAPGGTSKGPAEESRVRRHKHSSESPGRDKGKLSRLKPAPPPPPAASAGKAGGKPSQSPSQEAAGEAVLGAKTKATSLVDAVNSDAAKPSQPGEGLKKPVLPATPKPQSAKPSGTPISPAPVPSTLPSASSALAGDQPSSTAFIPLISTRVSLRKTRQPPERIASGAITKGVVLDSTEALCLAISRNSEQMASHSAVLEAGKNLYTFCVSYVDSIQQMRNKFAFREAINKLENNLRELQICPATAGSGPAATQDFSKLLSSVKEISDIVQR

Regarding `CC(O)CN1CCN(CCn2ccc(Nc3ncc4c(n3)-c3c(nn(C)c3-c3ccccc3)C[C@H]4C)n2)CC1` (stereo partly shown) [Compound I-7], the inhibition at 1 µM worked out at 10% against GSK3B (GSK3 beta), 39% at AMPK A1/B1/G1 and 22% against ABL1. The IC50 on human IGF-1R is 1 nM.

For the molecule `C[C@@H]1Cc2nn(C)c(-c3ccccc3)c2-c2nc(Nc3ccn(CCN4CCN(C)CC4)n3)ncc21` [Compound I-1], the inhibition at 1 µM against GSK3B (GSK3 beta) was determined as 14%; on AMPK A1/B1/G1 it was 36%; against ABL1 it was 24%. Besides, at human IGF-1R, the IC50 amounted to 0.9 nM.

`C[C@@H]1Cc2nn(C)c(-c3ccccc3)c2-c2nc(Nc3ccn(CCN4CCN(CC(C)(C)O)CC4)n3)ncc21` [Compound I-3]: the inhibition at 1 µM against GSK3B (GSK3 beta) stood at 9%; at AMPK A1/B1/G1 it was 43%; against ABL1, 27%. This molecule also yielded an IC50 on human IGF-1R of 1.9 nM.

For `C[C@@H]1Cc2nn(C)c(-c3ccccc3)c2-c2nc(Nc3ccn(CCN4CCN(CC(=O)OC5CCOCC5)CC4)n3)ncc21` [Compound I-8], the inhibition at 1 µM against GSK3B (GSK3 beta) was 14%; at AMPK A1/B1/G1, 29%; against ABL1 it was 10%. The molecule further displayed a 50% inhibitory concentration (IC50) at human IGF-1R of 2.8 nM.

As for `COCCN1CCN(CCn2ccc(Nc3ncc4c(n3)-c3c(nn(C)c3-c3ccccc3)C[C@H]4C)n2)CC1` [Compound I-11], the inhibition at 1 µM came out at 8% against GSK3B (GSK3 beta), 28% on AMPK A1/B1/G1 and 10% on ABL1. For the same molecule, the IC50 against human IGF-1R is 0.9 nM.

As to `C[C@@H]1Cc2nn(C)c(-c3ccccc3)c2-c2nc(Nc3ccn(CCN4CCOCC4)n3)ncc21` [Compound I-2], the inhibition at 1 µM turned out to be 10% on GSK3B (GSK3 beta), 34% on AMPK A1/B1/G1 and 17% against ABL1. Moreover, the IC50 at human IGF-1R came out at 1.3 nM.

As for `C[C@@H]1Cc2nn(C)c(-c3ccccc3)c2-c2nc(Nc3ccn(CCN4CCN(CC5CCCO5)CC4)n3)ncc21` (stereo partly shown) [Compound I-9], the results for the inhibition at 1 µM on GSK3B (GSK3 beta), at AMPK A1/B1/G1 and against ABL1 were 9%, 35% and 17%, respectively. On human IGF-1R, it took 1.2 nM to reach half-maximal inhibition (IC50).
